From PubChem BioAssay AID256 (DTP/NCI, 2004)
Several values for one entry are separate records, joined by “and”; a condition that tells them apart may be missing. Equal values may be shown once. Toxic doses and inconclusive results are not listed.

System: CD2F1 mice, L1210 leukemia ip, survival T/C
Experiment: NCI In Vivo Anticancer Drug Screen. Data for tumor model L1210 Leukemia (intraperitoneal) in CD2F1 (CDF1) mice
Conditions: higher = longer survival
Outline: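 In this screen, transplantable tumors were grown in mice given either the compound or its vehicle. Results were expressed as the treated measurement relative to the control measurement.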

[1] = endpoint: mean survival time, dose: 50.0 mg/kg/injection, schedule: Q01DX009 (ip), vehicle: saline with Tween-80
[2] = endpoint: mean survival time, dose: 100.0 mg/kg/injection, schedule: Q01DX009 (ip), vehicle: saline with Tween-80
[3] = endpoint: mean survival time, dose: 200.0 mg/kg/injection, schedule: Q01DX009 (ip), vehicle: saline with Tween-80
[4] = endpoint: mean survival time, dose: 400.0 mg/kg/injection, schedule: Q01DX009 (ip), vehicle: saline with Tween-80
[5] = endpoint: mean survival time, dose: 200.0 mg/kg/injection, schedule: Q04DX003 (ip), vehicle: saline with Tween-80
[6] = endpoint: mean survival time, dose: 400.0 mg/kg/injection, schedule: Q04DX003 (ip), vehicle: saline with Tween-80
[7] = endpoint: mean survival time, dose: 100.0 mg/kg/injection, schedule: Q01DX001 (ip), vehicle: saline
[8] = endpoint: mean survival time, dose: 200.0 mg/kg/injection, schedule: Q01DX001 (ip), vehicle: saline
[9] = endpoint: mean survival time, dose: 400.0 mg/kg/injection, schedule: Q01DX001 (ip), vehicle: saline

For `Nc1nnc[se]1`, the T/C (endpoint: mean survival time, dose: 3.12 mg/kg/injection, schedule: Q01DX009 (ip), vehicle: saline with Tween-80) was 102 % of control and 104 % of control, the T/C (endpoint: mean survival time, dose: 6.25 mg/kg/injection, schedule: Q01DX009 (ip), vehicle: saline with Tween-80) was 109 % of control and 110 % of control and the T/C (endpoint: mean survival time, dose: 12.5 mg/kg/injection, schedule: Q01DX009 (ip), vehicle: saline with Tween-80) was 116 % of control and 117 % of control and 110 % of control. For the same compound, the T/C (endpoint: mean survival time, dose: 25.0 mg/kg/injection, schedule: Q01DX009 (ip), vehicle: saline with Tween-80) was 120 % of control, the T/C [1] was 120 % of control and 98 % of control and the T/C [2] was 105 % of control. For the same compound, the T/C (endpoint: median survival time, dose: 6.25 mg/kg/injection, schedule: Q01DX009 (ip), vehicle: saline with Tween-80) was 106 % of control, the T/C (endpoint: median survival time, dose: 12.5 mg/kg/injection, schedule: Q01DX009 (ip), vehicle: saline with Tween-80) was 109 % of control and the T/C (endpoint: median survival time, dose: 25.0 mg/kg/injection, schedule: Q01DX009 (ip), vehicle: saline with Tween-80) was 108 % of control.

With `COc1ccc(OC)c(NC(=O)Oc2cccc(NC(C)=O)c2)c1` the T/C (endpoint: mean survival time, dose: 50.0 mg/kg/injection, schedule: Q01DX009 (ip), vehicle: Klucel (hydroxypropylcellulose) (HPC)) was 105 % of control, the T/C [1] was 103 % of control and the T/C (endpoint: mean survival time, dose: 100.0 mg/kg/injection, schedule: Q01DX009 (ip), vehicle: Klucel (hydroxypropylcellulose) (HPC)) was 102 % of control. For the same compound, the T/C [2] was 97 % of control, the T/C (endpoint: mean survival time, dose: 200.0 mg/kg/injection, schedule: Q01DX009 (ip), vehicle: Klucel (hydroxypropylcellulose) (HPC)) was 100 % of control and the T/C [3] was 272 % of control and 100 % of control. The T/C (endpoint: mean survival time, dose: 400.0 mg/kg/injection, schedule: Q01DX009 (ip), vehicle: Klucel (hydroxypropylcellulose) (HPC)) was 102 % of control and the T/C [4] was 92 % of control.

For `O=C(CC(CC(=O)C(c1ccccc1)c1ccccc1)c1ccccc1)C(c1ccccc1)c1ccccc1`, the T/C (endpoint: mean survival time, dose: 12.5 mg/kg/injection, schedule: Q04DX002 (ip), vehicle: saline with Tween-80) was 93 % of control, the T/C (endpoint: mean survival time, dose: 25.0 mg/kg/injection, schedule: Q04DX002 (ip), vehicle: saline with Tween-80) was 90 % of control and the T/C [5] was 86 % of control. The T/C [6] was 86 % of control.

For `CCCCCCCCCCCCCCCCCCNC(=O)Nc1cccc(OC)c1`, the T/C (endpoint: mean survival time, dose: 200.0 mg/kg/injection, schedule: Q04DX002 (ip), vehicle: saline with Tween-80) was 96 % of control and the T/C (endpoint: mean survival time, dose: 400.0 mg/kg/injection, schedule: Q04DX002 (ip), vehicle: saline with Tween-80) was 101 % of control.

For `COc1ccccc1NC(=O)c1ccccc1`, the T/C [2] was 98 % of control, the T/C [3] was 114 % of control and the T/C [4] was 104 % of control.

With `O=S1CC2(C1)CS(=O)C2` (stereo not drawn) the T/C [7] was 103 % of control, the T/C [8] was 103 % of control and the T/C [9] was 100 % of control.

`OC1C=CC2CC1C2` (stereo not drawn) was tested, and the T/C (endpoint: mean survival time, dose: 100.0 mg/kg/injection, schedule: Q04DX003 (ip), vehicle: saline with Tween-80) was 95 % of control, the T/C [5] was 98 % of control and the T/C [6] was 98 % of control.

`CC(=O)NCC(C)C` was tested, and the T/C [7] was 98 % of control, the T/C [8] was 97 % of control and the T/C [9] was 104 % of control.

For `CC(C)(C)c1ccc(O)c(C(=O)N/N=C/c2ccccc2O)c1`, the T/C (endpoint: mean survival time, dose: 100.0 mg/kg/injection, schedule: Q01DX001 (ip), vehicle: saline with Tween-80) was 97 % of control, the T/C (endpoint: mean survival time, dose: 200.0 mg/kg/injection, schedule: Q01DX001 (ip), vehicle: saline with Tween-80) was 104 % of control and the T/C (endpoint: mean survival time, dose: 400.0 mg/kg/injection, schedule: Q01DX001 (ip), vehicle: saline with Tween-80) was 93 % of control.
